As usually defined, the clearance is the rate of elimination divided by the concentration. The AUC(0-inf) is total exposure, with the tail of the curve extrapolated. A word on the MRT: it is a mean duration of stay, worked out from the concentration-time curve. As a reminder, the Tmax is the time at which the peak concentration occurs. By half-life is commonly meant the time needed for the level to fall by half in the phase considered. As a reminder, the MIC is the least concentration at which growth counts as inhibited. What is called AUC(0-t) is the area under the concentration-time curve up to a stated or last time point. For orientation: Cmax means the highest concentration seen after dosing.

In data set [1] the test system is Staphylococcus aureus. The data set is described as follows: Antibacterial against methicillin-resistant Staphylococcus aureus ATCC 43300 assessed as post antibiotic effect time at 4 times MIC incubated for 1 hr followed by compound washout and then incubated for 20 hrs onto MH agar plate. It is filed as functional.
For data set [2], the system named is Staphylococcus aureus. The data set is described as follows: Antibacterial activity against methicillin-resistant Staphylococcus aureus infected in neutropenic thigh infection ICR/Swiss mouse model assessed reduction in colony forming unit in thigh at 20 mg/kg, iv administered 2 hrs post infection and measured at 24 hrs after drug dosage. Type of data set: functional.

Data set [3] in a line: Clearance in ICR mouse at 10 mg/kg, iv by LC-MS/MS analysis. Particulars: in vivo. It is filed as ADME, organism-based.
For data set [4], the system named is Staphylococcus aureus. The data set is described as follows: Bactericidal activity against methicillin-resistant Staphylococcus aureus ATCC 43300 assessed as reduction in colony forming unit at 4 times MIC incubated for 3 hrs followed by compound dilution with saline and then incubated for 20 hrs on MH agar plate by time-kill kinetics assay. Type of data set: functional.

For data set [5], the system named is Staphylococcus aureus. The data set is described as follows: Antibacterial against methicillin-resistant Staphylococcus aureus ATCC 43300 assessed as post antibiotic effect time at 4 times MIC incubated for 2 hrs followed by compound washout and then incubated for 20 hrs onto MH agar plate. Type of data set: functional.
The test system of data set [6] is Staphylococcus aureus. The data set is described as follows: Antibacterial activity against methicillin-resistant Staphylococcus aureus infected in systemic infection ICR mouse model assessed as animal survival rate at 30 mg/kg, iv relative to control. It is filed as functional.
Data set [7] can be described thus: AUC (0 to infinity) in ICR mouse at 10 mg/kg, iv by LC-MS/MS analysis. The arrangement: dose 10 mg/kg, route intravenous, time infinity. Type of data set: ADME, organism-based. Particulars: in vivo.
Data set [8] in a line: MRT in ICR mouse at 10 mg/kg, iv by LC-MS/MS analysis. Type of data set: ADME, organism-based. To be noted: in vivo.
Data set [9] can be described thus: Tmax in ICR mouse at 10 mg/kg, iv by LC-MS/MS analysis. It is filed as ADME, organism-based. To be noted: in vivo.
For data set [10], the system named is Staphylococcus aureus. The data set is described as follows: Bactericidal activity against methicillin-resistant Staphylococcus aureus ATCC 43300 assessed as reduction in bacterial growth at 4 times MIC incubated for 24 hrs followed by compound dilution with saline and then incubated for 20 hrs on MH agar plate by time-kill kinetics assay relative to control. It is filed as functional. The arrangement: scale not given: the % may be the effect or the level left.

Data set [11] in a line: Half life in ICR mouse at 10 mg/kg, iv by LC-MS/MS analysis. To be noted: in vivo. Type of data set: ADME, organism-based.
The test system of data set [12] is Staphylococcus aureus. The data set is described as follows: Antibacterial activity against Staphylococcus aureus AD3 assessed as bacterial growth inhibition incubated for 24 hrs by broth dilution method. It is filed as functional. To be noted: AD3, 24 h.
Data set [13] has as its system Staphylococcus aureus. The data set is described as follows: Antibacterial against methicillin-resistant Staphylococcus aureus ATCC 43300 assessed as post antibiotic effect time at 2 times MIC incubated for 1 hr followed by compound washout and then incubated for 20 hrs onto MH agar plate. It is filed as functional.
Data set [14] concerns Escherichia coli. The data set is described as follows: Antibacterial activity against Escherichia coli ATCC 25922 assessed as bacterial growth inhibition incubated for 24 hrs by broth dilution method. It is filed as functional. Particulars: ATCC 25922, 24 h. In general terms: In broth dilution the organism is exposed to a series of concentrations in liquid medium.
Data set [15] relates to Escherichia coli. The data set is described as follows: Antibacterial activity against Escherichia coli 9-1 assessed as bacterial growth inhibition incubated for 24 hrs by broth dilution method. Type of data set: functional. To be noted: 9-1, 24 h.
The test system of data set [16] is Staphylococcus aureus. The data set is described as follows: Antibacterial activity against Staphylococcus aureus ATCC 29213 assessed as bacterial growth inhibition incubated for 24 hrs by broth dilution method. It is filed as functional. Particulars: ATCC 29213, 24 h.
The nature of data set [17]: AUC (0 to t) in ICR mouse at 10 mg/kg, iv by LC-MS/MS analysis. Type of data set: ADME, organism-based. To be noted: in vivo.
Data set [18] in a line: Cmax in ICR mouse at 10 mg/kg, iv by LC-MS/MS analysis. Type of data set: ADME, organism-based. Details: dose 10 mg/kg, route intravenous. To be noted: in vivo.
Data set [19] relates to Staphylococcus aureus. The data set is described as follows: Antibacterial against methicillin-resistant Staphylococcus aureus ATCC 43300 assessed as post antibiotic effect time at 2 times MIC incubated for 2 hrs followed by compound washout and then incubated for 20 hrs onto MH agar plate. Type of data set: functional.
Data set [20] relates to Staphylococcus aureus. The data set is described as follows: Antibacterial activity against methicillin-resistant Staphylococcus aureus ATCC 43300 assessed as bacterial growth inhibition incubated for 24 hrs by broth dilution method. It is filed as functional. To be noted: ATCC 43300, 24 h.

Converted amounts (≈) assume the structure as drawn.

As for `C=C[C@]1(C)C[C@@H](OC(=O)CSc2ccccc2NC(=O)CN2CCOCC2)[C@]2(C)[C@H](C)CC[C@]3(CCC(=O)[C@H]32)[C@@H](C)[C@@H]1O`, the Time is 2.05 h with Staphylococcus aureus [1], 3.47 h in the data set on Staphylococcus aureus [5], 1.62 h in the data set with Staphylococcus aureus [13] and 2.64 h with Staphylococcus aureus [19]. Further, the Activity in the data set on Staphylococcus aureus [2] was determined as 1.4 log10CFU/ml; in the data set with Staphylococcus aureus [4], 2.19 log10CFU/ml; in the data set with Staphylococcus aureus [6] it was 60%; in the data set on Staphylococcus aureus [10], 100%. The compound further had a clearance in data set [3] of 361 mL/min/kg. The compound further displayed an AUC(0-inf) in data set [7] of 480 ng·h/mL. Besides, the mean residence time (MRT) in data set [8] turned out to be 36.6 min. Further, the time of peak concentration (Tmax) in [9] was found to be 4.98 min. The same compound gave a half-life in data set [11] of 413 min. Moreover, the MIC with Staphylococcus aureus [12] is 0.125 µg/mL (≈ 0.204 µM); with Escherichia coli [14], > 32 µg/mL; with Escherichia coli [15], > 32 µg/mL; in the data set with Staphylococcus aureus [16], 0.06 µg/mL (≈ 0.0979 µM); in the data set on Staphylococcus aureus [20], 0.06 µg/mL (≈ 0.0979 µM). The area under the curve AUC(0-t) in data set [17] is 470 ng·h/mL. The peak level in [18] (Cmax) was 1760 ng/mL.
